In brackets after ≈: the same amount, converted by molar mass. Read-outs that look alike come from different tables or passages of the source.
Experiments:
[1] = system: mixture of the bacterial organisms listed in Table II; assay: Multiple Challenge Test in shampoo formulation; format: cell-based, bacteria listed in Table II; conditions: 10 challenges
Description: (§1) Additionally, the ability of the compounds of Table I to serve as preservatives in a variety of formulated industrial, household, and commercial products is tested using a Multiple Challenge Test Protocol. In this test, the formulations include a styrene-butadiene latex, a tape joint, a hand lotion, and a shampoo. The styrene-butadiene latex test formulation used is Latex DL 238A, available from The Dow Chemical Company. The compositions of the tape joint, hand lotion and shampoo test formulations can be found in Tables V-VII.
(§2) The formulations are separated into 50 g aliquots and placed in sterile bottles. An appropriate amount of a fresh one percent stock solution of the test compound in acetone-water is added to achieve the desired final concentrations. A small portion of each of the test formulations is streaked onto Tryptic Soy Agar (TSA) petri plates using sterile cotton swabs to ensure that the formulations are sterile. If the formulation is sterile, then it is inoculated with 0.1 ml of a mixture of equal aliquots of the 24 hour cultures of each of the bacterial organisms listed in Table II. The test formulations are then incubated at 30° C. After 24 hours, each sample is streaked onto a TSA petri plate using a sterile swab. All plates are then incubated at 30° C. for 48 hours and then rated for microbial growth using the rating system listed in Table VIII. Samples with a rating of 3 or less are reinoculated as described in the procedure for the first inoculation. Samples with a rating of 4 or greater are not reinoculated but after another 24 hours are restreaked on TSA agar.
(§3) The normal interpretation of the results is that a concentration of the antimicrobial being tested is considered to be effective if no ratings greater than a 3 are observed throughout the 10 challenges. The Minimum Effective Concentration (MEC), which is used to compare the activity of the antimicrobial additives in the end-use formulations, is the minimum level that is effective under the conditions of the Multiple Challenge Test.

[2] = system: Saccharomyces cerevisiae (Sc); assay: MIC in malt yeast agar, Saccharomyces cerevisiae; format: cell-based, Saccharomyces cerevisiae ATCC 4105; conditions: read-out: Minimum Inhibitory Concentration, Sc
Description: (§4) The minimum inhibitory concentration (MIC) for the compounds listed in Table I is determined for 9 bacteria, using nutrient agar, and 7 yeast and fungi, using malt yeast agar. A one percent solution of the test compound is prepared in a mixture of acetone and water. Nutrient agar is prepared at pH 6.8, representing a neutral medium, and at pH 8.2, representing an alkaline medium. The nutrient agars are prepared by adding 23 g of nutrient agar to one-liter of deionized water. In addition, the alkaline medium is prepared by adjusting a 0.04M solution of N-[tris-(hydroxymethyl)methyl]-glycine buffered deionized water with concentrated sodium hydroxide to a pH of […]. Malt yeast agar is prepared by adding 3 g yeast extract and 45 g malt agar per liter of deionized water. The specific agar is dispensed in 30 ml aliquots into 25×200 mm test tubes, capped and autoclaved for 15 minutes at 115° C. The test tubes containing the agar are cooled in a water bath until the temperature of the agar is 48° C. Then, an appropriate amount of the one percent solution of the test compound is added (except in the controls where no compound is added) to the respective test tubes so that the final concentrations are 500, 250, 100, 50, 25, 10, 5, 2.5, 1.0 and zero parts per million of the test compound in the agar, thus having a known concentration of test compound dispersed therein. The contents of the test tubes are then transferred to respective petri plates. After drying for 24 hours, the petri plates containing nutrient agar are inoculated with bacteria and those containing malt yeast agar are inoculated with yeast and fungi.
(§5) The inoculation with the yeast and fungi is accomplished as follows. Cultures of yeast and fungi are incubated for seven days on malt yeast agar at 30° C. These cultures are used to prepare suspensions by the following procedure. A suspension of each organism is prepared by adding 10 ml of sterile saline and 10 microliters of octylphenoxy polyethoxy ethanol (TRITON® X-100, a trademark of Rohm & Haas Company) to the agar slant of yeast or fungi. The sterile saline/octylphenoxy polyethoxy ethanol solution is then agitated with a sterile swab to suspend the microorganism grown on the slant. Each resulting suspension is diluted into sterile saline (1 part suspension: 9 parts sterile saline). Aliquots of these dilutions are placed in individual wells of Steer's Replicator and petri plates inoculated as previously described. The petri plates are incubated at 30° C. and read after 48 hours for yeast and 72 hours for fungi.
(§6) Table II lists the bacteria, yeast and fungi used in the MIC test described above along with their respective American Type Culture Collection (ATCC) identification numbers.
(§7) The following MIC and MEC antimicrobial tests, whose results are shown in Tables XIII-XVII, are performed using the same methods as described hereinabove.

Aspergillus niger (An) = assay: MIC in malt yeast agar, Aspergillus niger; format: cell-based, Aspergillus niger ATCC 16404; conditions: read-out: Minimum Inhibitory Concentration, An
Description: as §4, §5, §6, §7

[3] = system: Penicillium chrysogenum (Pc); assay: MIC in malt yeast agar, Penicillium chrysogenum; format: cell-based, Penicillium chrysogenum ATCC 9480; conditions: read-out: Minimum Inhibitory Concentration, Pc
Description: as §4, §5, §6, §7

[4] = system: Staphylococcus aureus (Sa); assay: MIC in nutrient agar, Staphylococcus aureus; format: cell-based, Staphylococcus aureus ATCC 6538
Description: as §4
(§8) The inoculation with bacteria is accomplished by using the following procedure. Twenty-four hour-cultures of each of the bacteria are prepared by incubating the respective bacteria in tubes containing nutrient broth for 24 hours at 30° C. in a shaker. Dilutions of each of the 24 hour-cultures are made so that nine separate suspensions (one for each of the nine test bacteria) are made, each containing 10^8 colony forming units (CFU) per ml of suspension of a particular bacteria. Aliquots of 0.3 ml of each of the bacterial suspensions are used to fill the individual wells of Steer's Replicator. For each microbial suspension, 0.3 ml was used to fill three wells (i.e., three wells of 0.3 ml each) so that for the nine different bacteria, 27 wells are filled. The Steer's Replicator is then used to inoculate both the neutral and alkaline pH nutrient agar petri plates.
(§9) The inoculated petri plates are incubated at 30° C. for 48 hours and then read to determine if the test compound which is incorporated into the agar prevented growth of the respective bacteria.
as §6, §7

[5] = system: Aureobasidium pullulan (Ap); assay: MIC in malt yeast agar, Aureobasidium pullulan; format: cell-based, Aureobasidium pullulan ATCC 16622; conditions: read-out: Minimum Inhibitory Concentration, Ap
Description: as §4, §5, §6, §7

[6] = system: mixture of the bacterial organisms listed in Table II; assay: Multiple Challenge Test in hand lotion formulation; format: cell-based, bacteria listed in Table II; conditions: 10 challenges
Description: as §1, §2, §3

[7] = system: Klebsiella pneumoniae (Kp); assay: MIC in nutrient agar, Klebsiella pneumoniae; format: cell-based, Klebsiella pneumoniae ATCC 8308
Description: as §4, §8, §9, §6, §7

[8] = system: mixture of the bacterial organisms listed in Table II; assay: Multiple Challenge Test in styrene-butadiene latex; format: cell-based, bacteria listed in Table II; conditions: Styrene-Butadiene Latex Formulation; 10 challenges
Description: as §1, §2, §3

[9] = Staphylococcus aureus, pH 6.8; read-out: Minimum Inhibitory Concentration, Sa
[10] = Staphylococcus aureus, pH 8.2, read-out: Minimum Inhibitory Concentration, Sa
[11] = pH 6.8, read-out: Minimum Inhibitory Concentration, Kp
[12] = pH 8.2, read-out: Minimum Inhibitory Concentration, Kp
[13] = Staphylococcus aureus, pH 6.8, read-out: Minimum Inhibitory Concentration, Sa
[14] = Staphylococcus aureus, pH 8.2; read-out: Minimum Inhibitory Concentration, Sa

| Structure (SMILES) | MEC [1] [ppm] | MIC ([2]; malt yeast agar) [µg/mL] | MIC (Aspergillus niger (An); malt yeast agar) [µg/mL] | MIC ([3]; malt yeast agar) [µg/mL] | MIC [4, 9] [µg/mL] | MIC [4, 10] [µg/mL] | MIC ([5]; malt yeast agar) [µg/mL] | MEC [6] [ppm] | MIC [7, 11] [µg/mL] | MIC [7, 12] [µg/mL] | MEC [8] [ppm] | MIC [2] [µg/mL] | MIC [4, 13] [µg/mL] | MIC [4, 14] [µg/mL] | Minimum Inhibitory Concentration, Sa ([4]; pH 8.2) [ppm] | MIC (Aspergillus niger (An)) [µg/mL] | MIC [3] [µg/mL] | MIC [5] [µg/mL] |
| --- | --- | --- | --- | --- | --- | --- | --- | --- | --- | --- | --- | --- | --- | --- | --- | --- | --- | --- |
| CCSC#CC#N [B, 3-ethylthio-2-propynenitrile] | 25 | < 1 | 2.5 (≈ 22.5 µM) | < 1 | 5 (≈ 45 µM) | 10 (≈ 90 µM) | < 1 | 25 | 5 (≈ 45 µM) | 5 (≈ 45 µM) | 25 | – | – | – | – | – | – | – |
| N#CC#CSC1CCCC1 [C, 3-cyclopentylthio-2-propynenitrile] | 100 | – | 2.5 (≈ 16.5 µM) | < 1 | – | – | 2.5 (≈ 16.5 µM) | 250 | < 10 | 25 (≈ 165 µM) | 100 | 2.5 (≈ 16.5 µM) | < 10 | < 10 | – | – | – | – |
| CSC#CC#N [Compound A, 3-methylthio-2-propynenitrile] | 10 | 0.5 (≈ 5.15 µM) | 2.5 (≈ 25.7 µM) | 0.25 (≈ 2.57 µM) | 2.5 (≈ 25.7 µM) | – | 2.5 (≈ 25.7 µM) | 10 | 2.5 (≈ 25.7 µM) | 10 (≈ 103 µM) | 10 | – | – | 5 (≈ 51.5 µM) | 5 | – | – | – |
| CSC=C(Cl)C#N [Compound G, 2-chloro-3-(methylthio)-2-propenenitrile] | – | – | – | – | – | 5 (≈ 37.4 µM) | – | – | 50 (≈ 374 µM) | 10 (≈ 74.8 µM) | – | 100 (≈ 748 µM) | 50 (≈ 374 µM) | – | – | 50 (≈ 374 µM) | 50 (≈ 374 µM) | 50 (≈ 374 µM) |
| N#CC#CSc1ccc(Cl)cc1 [D, 3-(4-chlorophenylthio)-2-propynenitrile] | 100 | < 1 | < 1 | < 1 | < 10 | – | < 1 | 250 | < 10 | 50 (≈ 258 µM) | 100 | – | – | 25 (≈ 129 µM) | – | – | – | – |
